Converted amounts (≈) assume the structure as drawn.
Assays:
Format in all cases: functional
Streptococcus pneumoniae [1] = assay: Antibacterial activity against erythromycin-resistant Streptococcus pneumoniae AB11 harboring harboring mef and erm gene after 24 h by NCCLS broth microdilution method; settings: AB11, 24 h
Streptococcus pyogenes [2] = assay: Antibacterial activity against erythromycin-resistant Streptococcus pyogenes R1 after 24 h by NCCLS broth microdilution method; settings: R1, 24 h
Streptococcus pneumoniae [3] = assay: Antibacterial activity against erythromycin-resistant Streptococcus pneumoniae A22072 harboring mef gene after 24 h by NCCLS broth microdilution method; settings: A22072, 24 h
Streptococcus pneumoniae [4] = assay: Antibacterial activity against erythromycin-resistant Streptococcus pneumoniae B1 harboring erm gene after 24 h by NCCLS broth microdilution method; settings: B1, 24 h
Staphylococcus aureus [5] = assay: Antibacterial activity against […] Staphylococcus aureus ATCC 29213 after 24 h by NCCLS broth microdilution method; settings: ATCC 29213, 24 h
Bacillus subtilis = assay: Antibacterial activity against penicillin-susceptible Bacillus subtilis ATCC 9372 after 24 h by NCCLS broth microdilution method; settings: ATCC 9372, 24 h
Pseudomonas aeruginosa = assay: Antibacterial activity against penicillin-susceptible Pseudomonas aeruginosa ATCC 27853 after 24 h by NCCLS broth microdilution method; settings: ATCC 27853, 24 h
Streptococcus pyogenes [6] = assay: Antibacterial activity against erythromycin-susceptible Streptococcus pyogenes after 24 h by NCCLS broth microdilution method
Escherichia coli = assay: Antibacterial activity against penicillin-susceptible Escherichia coli ATCC 25922 after 24 h by NCCLS broth microdilution method; settings: ATCC 25922, 24 h
Staphylococcus aureus [7] = assay: Antibacterial activity against erythromycin-susceptible Staphylococcus aureus ATCC 25923 after 24 h by NCCLS broth microdilution method; settings: ATCC 25923, 24 h

Structure (SMILES) | MIC (Streptococcus pneumoniae [1]) | MIC (Streptococcus pyogenes [2]) | MIC (Streptococcus pneumoniae [3]) | MIC (Streptococcus pneumoniae [4]) | MIC (Staphylococcus aureus [5]) | MIC (Bacillus subtilis) | MIC (Pseudomonas aeruginosa) | MIC (Streptococcus pyogenes [6]) | MIC (Escherichia coli) | MIC (Staphylococcus aureus [7])
CC[C@H]1OC(=O)[C@H](C)C(=O)[C@H](C)[C@@H](O[C@@H]2O[C@H](C)C[C@H](N(C)C)[C@H]2O)[C@](C)(OC)C[C@@H](C)C(=O)[C@H](C)[C@@H](OC(=O)NCCNC(=O)/C=C/c2ccc(O)cc2)[C@]1(C)O | 128 µg/mL (≈ 156 µM) | > 128 µg/mL | 4 µg/mL (≈ 4.88 µM) | 128 µg/mL (≈ 156 µM) | 32 µg/mL (≈ 39 µM) | 8 µg/mL (≈ 9.76 µM) | 128 µg/mL (≈ 156 µM) | 4 µg/mL (≈ 4.88 µM) | > 128 µg/mL | 32 µg/mL (≈ 39 µM)
CC[C@H]1OC(=O)[C@H](C)C(=O)[C@H](C)[C@@H](O[C@@H]2O[C@H](C)C[C@H](N(C)C)[C@H]2O)[C@](C)(OC)C[C@@H](C)C(=O)[C@H](C)[C@@H](OC(=O)NCCNC(=O)/C=C/c2ccc(F)cc2)[C@]1(C)O | 64 µg/mL (≈ 77.9 µM) | > 128 µg/mL | 4 µg/mL (≈ 4.87 µM) | 128 µg/mL (≈ 156 µM) | 128 µg/mL (≈ 156 µM) | 8 µg/mL (≈ 9.73 µM) | > 128 µg/mL | 2 µg/mL (≈ 2.43 µM) | > 128 µg/mL | 32 µg/mL (≈ 38.9 µM)
CC[C@H]1OC(=O)[C@H](C)C(=O)[C@H](C)[C@@H](O[C@@H]2O[C@H](C)C[C@H](N(C)C)[C@H]2O)[C@](C)(OC)C[C@@H](C)C(=O)[C@H](C)[C@@H](OC(=O)NCCNC(=O)/C=C/c2ccc(Br)cc2)[C@]1(C)O | 128 µg/mL (≈ 145 µM) | > 128 µg/mL | 2 µg/mL (≈ 2.27 µM) | 128 µg/mL (≈ 145 µM) | 64 µg/mL (≈ 72.5 µM) | 4 µg/mL (≈ 4.53 µM) | > 128 µg/mL | 2 µg/mL (≈ 2.27 µM) | > 128 µg/mL | 32 µg/mL (≈ 36.2 µM)
CC[C@H]1OC(=O)[C@H](C)C(=O)[C@H](C)[C@@H](O[C@@H]2O[C@H](C)C[C@H](N(C)C)[C@H]2O)[C@](C)(OC)C[C@@H](C)C(=O)[C@H](C)[C@@H](OC(=O)NCCNC(=O)c2ccc(C(C)(C)C)cc2)[C@]1(C)O | 128 µg/mL (≈ 153 µM) | 128 µg/mL (≈ 153 µM) | 4 µg/mL (≈ 4.8 µM) | 128 µg/mL (≈ 153 µM) | 128 µg/mL (≈ 153 µM) | 4 µg/mL (≈ 4.8 µM) | > 128 µg/mL | 16 µg/mL (≈ 19.2 µM) | > 128 µg/mL | 128 µg/mL (≈ 153 µM)
CC[C@H]1OC(=O)[C@H](C)C(=O)[C@H](C)[C@@H](O[C@@H]2O[C@H](C)C[C@H](N(C)C)[C@H]2O)[C@](C)(OC)C[C@@H](C)C(=O)[C@H](C)[C@@H](OC(=O)NCCNC(=O)/C=C/c2ccc([N+](=O)[O-])cc2)[C@]1(C)O | 128 µg/mL (≈ 151 µM) | > 128 µg/mL | 1 µg/mL (≈ 1.18 µM) | 128 µg/mL (≈ 151 µM) | 128 µg/mL (≈ 151 µM) | 4 µg/mL (≈ 4.71 µM) | 128 µg/mL (≈ 151 µM) | 1 µg/mL (≈ 1.18 µM) | > 128 µg/mL | 32 µg/mL (≈ 37.7 µM)
CC[C@H]1OC(=O)[C@H](C)C(=O)[C@H](C)[C@@H](O[C@@H]2O[C@H](C)C[C@H](N(C)C)[C@H]2O)[C@](C)(OC)C[C@@H](C)C(=O)[C@H](C)[C@@H](OC(=O)NCCNC(=O)/C=C/c2cccc3ccccc23)[C@]1(C)O | 128 µg/mL (≈ 150 µM) | 128 µg/mL (≈ 150 µM) | 2 µg/mL (≈ 2.34 µM) | 128 µg/mL (≈ 150 µM) | 32 µg/mL (≈ 37.5 µM) | 2 µg/mL (≈ 2.34 µM) | > 128 µg/mL | 1 µg/mL (≈ 1.17 µM) | 128 µg/mL (≈ 150 µM) | 16 µg/mL (≈ 18.7 µM)
CC[C@H]1OC(=O)[C@H](C)C(=O)[C@H](C)[C@@H](O[C@@H]2O[C@H](C)C[C@H](N(C)C)[C@H]2O)[C@](C)(OC)C[C@@H](C)C(=O)[C@H](C)[C@@H](OC(=O)NCCNC(=O)/C=C/c2ccccc2)[C@]1(C)O | 64 µg/mL (≈ 79.6 µM) | > 128 µg/mL | 4 µg/mL (≈ 4.98 µM) | 128 µg/mL (≈ 159 µM) | 128 µg/mL (≈ 159 µM) | 8 µg/mL (≈ 9.95 µM) | > 128 µg/mL | 4 µg/mL (≈ 4.98 µM) | > 128 µg/mL | 32 µg/mL (≈ 39.8 µM)
CC[C@H]1OC(=O)[C@H](C)C(=O)[C@H](C)[C@@H](O[C@@H]2O[C@H](C)C[C@H](N(C)C)[C@H]2O)[C@](C)(OC)C[C@@H](C)C(=O)[C@H](C)[C@@H](OC(=O)NCCNC(=O)/C=C/c2ccc(Cl)cc2Cl)[C@]1(C)O | 128 µg/mL (≈ 147 µM) | 64 µg/mL (≈ 73.3 µM) | 2 µg/mL (≈ 2.29 µM) | 128 µg/mL (≈ 147 µM) | 32 µg/mL (≈ 36.7 µM) | 2 µg/mL (≈ 2.29 µM) | > 128 µg/mL | 2 µg/mL (≈ 2.29 µM) | 128 µg/mL (≈ 147 µM) | 8 µg/mL (≈ 9.17 µM)
CC[C@H]1OC(=O)[C@H](C)C(=O)[C@H](C)[C@@H](O[C@@H]2O[C@H](C)C[C@H](N(C)C)[C@H]2O)[C@](C)(OC)C[C@@H](C)C(=O)[C@H](C)[C@@H](OC(=O)NCCNC(=O)c2cccc(C)c2)[C@]1(C)O | 64 µg/mL (≈ 80.8 µM) | > 128 µg/mL | 8 µg/mL (≈ 10.1 µM) | 128 µg/mL (≈ 162 µM) | 128 µg/mL (≈ 162 µM) | 8 µg/mL (≈ 10.1 µM) | > 128 µg/mL | 4 µg/mL (≈ 5.05 µM) | > 128 µg/mL | 32 µg/mL (≈ 40.4 µM)
CC[C@H]1OC(=O)[C@H](C)C(=O)[C@H](C)[C@@H](O[C@@H]2O[C@H](C)C[C@H](N(C)C)[C@H]2O)[C@](C)(OC)C[C@@H](C)C(=O)[C@H](C)[C@@H](OC(=O)NCCNC(=O)/C=C/c2ccccc2Cl)[C@]1(C)O | 128 µg/mL (≈ 153 µM) | > 128 µg/mL | 2 µg/mL (≈ 2.39 µM) | 128 µg/mL (≈ 153 µM) | 32 µg/mL (≈ 38.2 µM) | 4 µg/mL (≈ 4.77 µM) | > 128 µg/mL | 2 µg/mL (≈ 2.39 µM) | 128 µg/mL (≈ 153 µM) | 32 µg/mL (≈ 38.2 µM)
CC[C@H]1OC(=O)[C@H](C)C(=O)[C@H](C)[C@@H](O[C@@H]2O[C@H](C)C[C@H](N(C)C)[C@H]2O)[C@](C)(OC)C[C@@H](C)C(=O)[C@H](C)[C@@H](OC(=O)NCCNC(=O)/C=C/c2ccc(C)cc2)[C@]1(C)O | 64 µg/mL (≈ 78.2 µM) | > 128 µg/mL | 4 µg/mL (≈ 4.89 µM) | 128 µg/mL (≈ 156 µM) | 64 µg/mL (≈ 78.2 µM) | 8 µg/mL (≈ 9.78 µM) | > 128 µg/mL | 4 µg/mL (≈ 4.89 µM) | > 128 µg/mL | 64 µg/mL (≈ 78.2 µM)
CC[C@H]1OC(=O)[C@H](C)C(=O)[C@H](C)[C@@H](O[C@@H]2O[C@H](C)C[C@H](N(C)C)[C@H]2O)[C@](C)(OC)C[C@@H](C)C(=O)[C@H](C)[C@@H](OC(=O)NCCNC(=O)c2ccccc2O)[C@]1(C)O | 64 µg/mL (≈ 80.6 µM) | > 128 µg/mL | 4 µg/mL (≈ 5.04 µM) | 128 µg/mL (≈ 161 µM) | 128 µg/mL (≈ 161 µM) | 8 µg/mL (≈ 10.1 µM) | 128 µg/mL (≈ 161 µM) | 4 µg/mL (≈ 5.04 µM) | > 128 µg/mL | 32 µg/mL (≈ 40.3 µM)
CC[C@H]1OC(=O)[C@H](C)C(=O)[C@H](C)[C@@H](O[C@@H]2O[C@H](C)C[C@H](N(C)C)[C@H]2O)[C@](C)(OC)C[C@@H](C)C(=O)[C@H](C)[C@@H](OC(=O)NCCNC(=O)c2cccc(O)c2)[C@]1(C)O | 64 µg/mL (≈ 80.6 µM) | > 128 µg/mL | 16 µg/mL (≈ 20.2 µM) | 128 µg/mL (≈ 161 µM) | 128 µg/mL (≈ 161 µM) | 16 µg/mL (≈ 20.2 µM) | > 128 µg/mL | 2 µg/mL (≈ 2.52 µM) | > 128 µg/mL | 128 µg/mL (≈ 161 µM)
CC[C@H]1OC(=O)[C@H](C)[C@@H](O[C@H]2C[C@@](C)(OC)[C@@H](O)[C@H](C)O2)[C@H](C)[C@@H](O[C@@H]2O[C@H](C)C[C@H](N(C)C)[C@H]2O)[C@](C)(O)C[C@@H](C)CN(C)[C@H](C)[C@@H](O)[C@]1(C)O [AZITHROMYCIN] | > 128 µg/mL | > 128 µg/mL | 2 µg/mL (≈ 2.67 µM) | > 128 µg/mL | 8 µg/mL (≈ 10.7 µM) | 0.25 µg/mL (≈ 0.334 µM) | 16 µg/mL (≈ 21.4 µM) | 0.03 µg/mL (≈ 0.0401 µM) | 16 µg/mL (≈ 21.4 µM) | 0.25 µg/mL (≈ 0.334 µM)

Reference: ChEMBL document CHEMBL4052765, “Synthesis and antibacterial evaluation of novel 11-O-carbamoyl clarithromycin ketolides” (2017)
